{"source": "patent US10194662B2", "about": "“Carbamate compound and use thereof” (SUMITOMO CHEMICAL COMPANY, LIMITED, priority 2015, dated 2019)", "key": {"[1]": {"test_system": "wheat rust fungus (Puccinia recondita)", "assay": "Test Example 2: wheat rust, foliar spray preventive test", "format": "in vivo", "conditions": "wheat (Shirogane), 500 ppm foliar spray, inoculated 5 days after spraying, assessed after 1 + 8 days"}, "[2]": {"test_system": "rice blast fungus (Magnaporthe grisea)", "format": "in vivo", "conditions": "rice (Nipponbare), 500 ppm foliar spray, contact with infected seedling, 6 days"}}, "data": [{"smiles": "COC(=O)Nc1ccccc1COc1ccc(-c2ncccn2)cc1", "note": "[methyl N-(2-{[4-(pyrimidine-2-yl)phenoxy)methyl}phenyl)carbamate]", "values": [{"measurement": "area of the lesion on treated plant relative to untreated plant", "setting": "[1]", "value": "≥ 70", "unit": "%"}]}, {"smiles": "COC(=O)Nc1cccc(C)c1COc1ccc(-c2nccc(C)n2)cc1C", "note": "[Compound 2]", "values": [{"measurement": "lesion areas on treated plant relative to non-treated plant", "setting": "[2]", "value": "≤ 30", "unit": "%"}]}]}
